Source: patent US10351553B2, “Potassium channel modulators” (Cadent Therapeutics, Inc., priority 2017, dated 2019)
Values after ≈ are worked out from the molar mass of the structure shown.

What was measured:
[1] = Metabolic stability in liver microsomes, human; type: in vitro ADME; details: % remaining at 1 hour; 1 μM
Experimental: (§1) Metabolic stability profiling of the compounds was performed in liver microsomes. In this assay, test compound is incubated with liver microsomes in the presence of NADPH for 2 time points at 37° C. At the end of incubation, reaction is quenched with acetonitrile containing internal standard and the parent compound remaining is determined by LC-MS/MS. Conditions used in the assay are summarized below. […], 37° C. • Test concentration: 1 μM in 0.02% DMSO at pH 7.4 (n=2) • NADPH concentration in assay: 1 mM • Liver microsome protein concentration in assay: 0.5 mg/ml • Analysis: LC-MS/MS • Data reported: % Parent Compound Remaining (% PCR) • Reference compounds for high and low clearance are included • Species tested: mouse, rat, dog, monkey, and human

CYP3A4 = biological target: T1, CYP3A4 (Homo sapiens, UniProt P08684); test: CYP inhibition in human liver microsome, CYP3A4 (Midazolam); type: in vitro ADME
T1 construct: Matrix: Human Liver Microsome (Invitrogen, life technologies); tissue Invitrogen, life technologies; host or cells: human liver microsomes
T1 sequence (P08684 whole entry): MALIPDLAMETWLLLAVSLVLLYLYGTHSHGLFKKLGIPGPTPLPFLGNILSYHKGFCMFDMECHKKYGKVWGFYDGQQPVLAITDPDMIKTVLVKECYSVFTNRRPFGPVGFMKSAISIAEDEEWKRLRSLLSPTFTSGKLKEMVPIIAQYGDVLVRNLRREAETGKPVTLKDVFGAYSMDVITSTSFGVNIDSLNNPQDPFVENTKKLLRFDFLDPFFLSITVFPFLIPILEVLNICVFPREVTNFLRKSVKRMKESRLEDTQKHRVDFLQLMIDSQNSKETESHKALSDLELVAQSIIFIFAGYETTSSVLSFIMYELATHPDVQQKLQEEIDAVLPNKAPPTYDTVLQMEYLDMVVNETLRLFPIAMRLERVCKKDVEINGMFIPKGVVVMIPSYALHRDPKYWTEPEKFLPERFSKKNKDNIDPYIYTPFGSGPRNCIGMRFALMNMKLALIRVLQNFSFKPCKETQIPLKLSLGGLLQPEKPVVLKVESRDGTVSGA
Experimental: (§2) Compounds described herein were tested for CYP inhibition across 5 isoforms (3A4, 2D6, 2C9, 2C19 & 1A2). In this assay, CYP isoform specific substrates are incubated with human liver microsome (HLM) in the presence of test compounds, and metabolite formation is determined. Percentage inhibition of metabolite formation at different concentrations of test compound is calculated and IC50 is determined. Conditions used in the assay are summarized below. Results are shown in Table 2. • Test drug (Inhibitor) Concentration: 8 different concentrations (100 μM to 0.005 μM) • Matrix: Human Liver Microsome (Invitrogen, life technologies) • Specific probe substrates will be used for the isoforms as given below: • CYP3A4: Midazolam • CYP2D6: Bufuralol • CYP2C9: Diclofenac • CYP2C19: Mephynitoin • CYP1A2: Phenacetin • Cofactors: NADPH (1 mM final in assay) • Sample Analysis: LC-MS/MS (metabolites) • Specific reference inhibitors included in all assays (Ketoconazole/Quinidine/Sulphaphenazole/Ticlopidine/Furafylline) • Buffer: Potassium Phosphate Buffer (100 mM) pH 7.4 • DMSO level in assay: 0.1% • Data analysis: % Inhibition over control

SK2 channels = biological target: T2, SK2 channels (Homo sapiens, UniProt Q9H2S1); test: Whole-cell patch-clamp of SK2 current in HEK293 cells expressing SK2 channels; type: cell-based; details: for SK2 potency (SC100): Table 2, concentration that produces doubling of channel current, averages from later experiments
T2 construct: expressed in transfected cells; host or cells: HEK293
Experimental: The biological activity was determined as follows. The ionic current through small-conductance Ca^2+-activated K^+ channels (SK channels, subtype 2) was measured using the whole-cell configuration of the patch-clamp technique in a patch-clamp set-up using HEK293 tissue culture cells expressing SK2 channels as described in Hougaard et al., British Journal of Pharmacology 151, 655-665, May 8, 2007, the entire teachings of which are incorporated herein by reference. In one aspect, a compound is defined to be an SK Positive Allosteric Modulator (PAM) if the compound increases current in this assay, for example, if the SC100 value of the compound is less than or equal to 10 μM as determined by this assay. The SC100 value is defined to be the concentration of compound that increases the basal current by 100%.

[2] = Metabolic stability in liver microsomes, monkey; type: in vitro ADME; details: % remaining at 1 hour; 1 μM
Experimental: as §1

hERG = biological target: T3, hERG (Homo sapiens, UniProt Q12809); test: Cardiac potassium channel hERG assay, whole-cell patch clamp in HEK-293 cells; type: cell-based; details: HEK-293 cells stably transfected with hERG; read-out: hERG inhibition (IC50)
T3 construct: host or cells: HEK-293
T3 sequence (Q12809 whole entry): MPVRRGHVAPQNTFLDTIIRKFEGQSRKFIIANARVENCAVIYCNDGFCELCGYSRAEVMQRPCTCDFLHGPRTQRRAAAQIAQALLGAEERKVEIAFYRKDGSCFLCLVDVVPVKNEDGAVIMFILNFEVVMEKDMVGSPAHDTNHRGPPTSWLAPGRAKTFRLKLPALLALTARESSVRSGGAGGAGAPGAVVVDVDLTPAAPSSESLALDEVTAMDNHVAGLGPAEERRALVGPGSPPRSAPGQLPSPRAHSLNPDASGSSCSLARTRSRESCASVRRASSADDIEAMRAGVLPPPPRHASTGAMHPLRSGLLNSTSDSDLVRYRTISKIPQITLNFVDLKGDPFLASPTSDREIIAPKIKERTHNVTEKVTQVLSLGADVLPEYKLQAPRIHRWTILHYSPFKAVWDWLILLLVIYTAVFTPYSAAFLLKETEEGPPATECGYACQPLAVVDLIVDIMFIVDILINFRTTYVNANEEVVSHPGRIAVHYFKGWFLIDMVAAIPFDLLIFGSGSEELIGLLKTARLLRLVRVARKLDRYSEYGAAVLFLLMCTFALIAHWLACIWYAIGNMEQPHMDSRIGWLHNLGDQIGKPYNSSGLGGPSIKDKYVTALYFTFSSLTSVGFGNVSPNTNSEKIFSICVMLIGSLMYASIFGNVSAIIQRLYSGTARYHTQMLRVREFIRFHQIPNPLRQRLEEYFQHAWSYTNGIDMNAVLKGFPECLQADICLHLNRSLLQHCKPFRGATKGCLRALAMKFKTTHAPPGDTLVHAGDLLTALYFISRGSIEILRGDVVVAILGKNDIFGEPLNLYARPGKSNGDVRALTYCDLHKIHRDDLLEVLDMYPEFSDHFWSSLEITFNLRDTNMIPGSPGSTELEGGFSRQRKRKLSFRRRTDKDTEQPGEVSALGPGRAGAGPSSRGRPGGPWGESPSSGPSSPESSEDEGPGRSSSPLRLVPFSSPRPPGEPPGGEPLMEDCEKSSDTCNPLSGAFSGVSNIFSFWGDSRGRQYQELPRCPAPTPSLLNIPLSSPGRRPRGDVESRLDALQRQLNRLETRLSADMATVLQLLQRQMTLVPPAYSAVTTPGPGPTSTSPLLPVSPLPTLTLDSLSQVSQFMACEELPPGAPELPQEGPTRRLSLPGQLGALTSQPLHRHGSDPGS
Experimental: Compounds were tested in a cardiac potassium channel hERG assay. hERG is responsible for a rapid delayed rectifier current (IKr) in human ventricles. Inhibition of IKr is the most common cause of cardiac action potential prolongation by non-cardiac drugs. See e.g., Brown, A. M. and Rampe, D. (2000). Drug-induced long QT syndrome: is HERG the root of all evil? Pharmaceutical News 7, 15-20.
HEK-293 cells were stably transfected with hERG cDNA. Stable transfectants were selected by coexpression with the G418-resistance gene incorporated into the expression plasmid. Selection pressure was maintained by including G418 in the culture medium. Cells were cultured in Dulbecco's Modified Eagle Medium/Nutrient Mixture F-12 (D-MEM/F-12) supplemented with 10% fetal bovine serum, 100 U/mL penicillin G sodium, 100 μg/mL streptomycin sulfate and 500 μg/mL G418. Cell culture records are kept on file at Charles River Laboratories. […]
Onset and steady state inhibition of hERG current was measured using a pulse pattern with fixed amplitudes (conditioning prepulse: +20 mV for 2 s; test pulse: −50 mV for 2 s) repeated at 10 s intervals, from a holding potential of −80 mV. Peak tail current was measured during the 2 s step to −50 mV.
One test article concentration was applied to each cell (n=3). Peak current was measured during the test ramp. […] Peak current was measured until a new steady state was achieved.

[3] = Metabolic stability in liver microsomes, dog; type: in vitro ADME; details: % remaining at 1 hour; 1 μM
Experimental: as §1

CYP2D6 = biological target: T4, CYP2D6 (Homo sapiens, UniProt P10635); test: CYP inhibition in human liver microsome, CYP2D6 (Bufuralol); type: in vitro ADME
T4 construct: Matrix: Human Liver Microsome (Invitrogen, life technologies); tissue Invitrogen, life technologies; host or cells: human liver microsomes
T4 sequence (P10635 whole entry): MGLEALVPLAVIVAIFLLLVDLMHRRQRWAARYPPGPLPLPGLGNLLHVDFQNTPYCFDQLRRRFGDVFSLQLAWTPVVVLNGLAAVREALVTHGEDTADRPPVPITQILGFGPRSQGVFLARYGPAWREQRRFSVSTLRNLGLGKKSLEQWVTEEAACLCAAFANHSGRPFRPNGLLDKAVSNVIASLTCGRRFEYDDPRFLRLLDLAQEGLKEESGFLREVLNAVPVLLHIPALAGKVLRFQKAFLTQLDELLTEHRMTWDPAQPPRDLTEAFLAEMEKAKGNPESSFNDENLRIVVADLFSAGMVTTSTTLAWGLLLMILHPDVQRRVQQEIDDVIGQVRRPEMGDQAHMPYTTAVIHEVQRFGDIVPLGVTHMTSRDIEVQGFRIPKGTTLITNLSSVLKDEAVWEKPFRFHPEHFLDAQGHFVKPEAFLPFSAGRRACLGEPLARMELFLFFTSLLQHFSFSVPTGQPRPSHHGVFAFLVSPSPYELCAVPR
Experimental: as §2

[4] = Metabolic stability in liver microsomes, mouse; type: in vitro ADME; details: % remaining at 1 hour; 1 μM
Experimental: as §1

[5] = Aqueous (kinetic) solubility, shake-flask, phosphate buffer pH 7.4; type: physicochemical; details: 23 °C, kinetic from dmso stock, phosphate buffer pH 7.4, 16 hours at room temperature
Experimental: Aqueous solubility (kinetic solubility) tests of the compounds were performed in phosphate buffer saline (pH 7.4) measured by shake-flask method. In this assay, DMSO stock solution of test compound is added to buffer followed by equilibration (shaking), filtration and determination of soluble amount by HPLC-UV Conditions used in the assay are summarized below.

[6] = Oral bioavailability in rat; type: in vivo; details: male, Sprague Dawley, plasma; 10 mg/kg PO, 0.5 mg/kg IV in rat
Description: Oral bioavailability data was collected in rat as follows.

[7] = Metabolic stability in liver microsomes, rat; type: in vitro ADME; details: % remaining at 1 hour; 1 μM
Experimental: as §1

Structure (SMILES): Cc1cc(NC2CCCCC2)nc(-n2nc(C)cc2C)n1 [Comparator A, reference compound]
- Liver microsome stability, Human [1]: 50%
- IC50 (CYP3A4): > 10 µM
- SK2 potency (SC100) (SK2 channels): 1.38 µM
- Liver microsome stability, Monkey [2]: 1%
- IC50 (hERG): > 10 µM
- Liver microsome stability, Dog [3]: 2%
- IC50 (CYP2D6): 0.79 µM
- Liver microsome stability, Mouse [4]: 1%
- solubility kinetic at 16 h [5]: 17 µg/mL (≈ 59.6 µM)
- bioavailability [6]: 5%
- Liver microsome stability, Rat [7]: 1%

Structure (SMILES): Cc1ccn(-c2nc(NC3CCC(F)(F)CC3)cc(N3CCOCC3)n2)n1 [Compound 1, N-(4,4-difluorocyclohexyl)-2-(3-methyl-1H-pyrazol-1-yl)-6-morpholinopyrimidin-4-amine]
- Liver microsome stability, Human [1]: 84%
- IC50 (CYP3A4): > 10 µM
- Measured SK2 SC100 (SK2 channels; Table 1, concentration that increases the basal current by 100%): 0.5 µM
- SK2 potency (SC100) (SK2 channels): 0.4 µM
- Liver microsome stability, Monkey [2]: 46%
- IC50 (hERG): > 10 µM
- Liver microsome stability, Dog [3]: 54%
- IC50 (CYP2D6): > 10 µM
- Liver microsome stability, Mouse [4]: 47%
- solubility kinetic at 16 h [5]: 74 µg/mL (≈ 196 µM)
- bioavailability [6]: 81%
- Liver microsome stability, Rat [7]: 60%
